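48-hour exposure; five concentrations; linearly interpolated endpoints. GI50: concentration for 50% inhibition of growth.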 Calls of active or inactive are those of the source. Rule as the data show it: active = GI50 up to about 1.1 µM and inactive = higher.
Columns and labels:
Experiment in all cases: NCI-60 cell line screen, 48 h
HCT-116 = test system: HCT-116
MDA-MB-435 = test system: MDA-MB-435
SK-MEL-2 = test system: SK-MEL-2
OVCAR-3 = test system: OVCAR-3
786-0 = test system: 786-0
SNB-19 = test system: SNB-19
NCI/ADR-RES = test system: NCI/ADR-RES
NCI-H226 = test system: NCI-H226
HCT-15 = test system: HCT-15
A498 = test system: A498
OVCAR-5 = test system: OVCAR-5
MCF7 = test system: MCF7
UACC-257 = test system: UACC-257
HOP-62 = test system: HOP-62
SK-MEL-28 = test system: SK-MEL-28
IGROV-1 = test system: IGROV-1
MDA-N = test system: MDA-N
NCI-H460 = test system: NCI-H460
K562 = test system: K562

Row | Compound | GI50 (HCT-116) | GI50 (MDA-MB-435) | GI50 (SK-MEL-2) | GI50 (OVCAR-3) | GI50 (786-0) | GI50 (SNB-19) | GI50 (NCI/ADR-RES) | GI50 (NCI-H226) | GI50 (HCT-15) | GI50 (A498) | GI50 (OVCAR-5) | GI50 (MCF7) | GI50 (UACC-257) | GI50 (HOP-62) | GI50 (SK-MEL-28) | GI50 (IGROV-1) | GI50 (MDA-N) | GI50 (NCI-H460) | GI50 (K562)
1 | COc1ccc(C2=C(N)c3ccccc3C2=O)cc1 | 87.5 µM (inactive) | > 100 µM (inactive) | > 100 µM (inactive) | > 100 µM (inactive) | 52.1 µM (inactive) | 25.7 µM (inactive) | 42.4 µM (inactive) | 45.6 µM (inactive) | > 100 µM | 81.8 µM (inactive) | > 100 µM (inactive) | > 100 µM (inactive) | > 100 µM (inactive) | 31.2 µM (inactive) | > 100 µM (inactive) | 89.7 µM (inactive) | > 100 µM (inactive) | > 100 µM (inactive) | –
2 | CC(C)CCCC(C)[C@H]1CC[C@H]2[C@@H]3CC[C@H]4C[C@@H](CCC=C(c5cc(Cl)c(O)c(C(=O)OC(C)C)c5)c5cc(Cl)c(O)c(C(=O)OC(C)C)c5)CC[C@]4(C)[C@H]3CC[C@]12C (stereo partly specified) | > 50 µM (inactive) | > 50 µM (inactive) | > 50 µM (inactive) | > 50 µM (inactive) | > 50 µM (inactive) | > 50 µM (inactive) | > 50 µM (inactive) | – | > 50 µM | > 50 µM (inactive) | > 50 µM (inactive) | > 50 µM (inactive) | – | > 50 µM (inactive) | > 50 µM (inactive) | > 50 µM (inactive) | > 50 µM (inactive) | – | > 50 µM (inactive)
3 | COc1ccc(C(CC2(c3ccc(OC)cc3)SCCCS2)NC(C)=O)cc1 (stereo unspecified) | 56.1 µM (inactive) | 40.7 µM (inactive) | 41.3 µM (inactive) | 45.6 µM (inactive) | > 100 µM (inactive) | 99.1 µM (inactive) | 21.2 µM (inactive) | – | 37 µM | 90.6 µM (inactive) | > 100 µM (inactive) | 37.2 µM (inactive) | 26.2 µM (inactive) | 47.1 µM (inactive) | > 100 µM (inactive) | > 100 µM (inactive) | 61 µM (inactive) | 40.7 µM (inactive) | 35.4 µM (inactive)
4 | O=C(O)c1c[nH]c2c(Sc3ccccc3)nccc2c1=O | > 100 µM (inactive) | > 100 µM (inactive) | > 100 µM (inactive) | > 100 µM (inactive) | > 100 µM (inactive) | > 100 µM (inactive) | > 100 µM (inactive) | > 100 µM (inactive) | > 100 µM | > 100 µM (inactive) | > 100 µM (inactive) | > 100 µM (inactive) | > 100 µM (inactive) | > 100 µM (inactive) | > 100 µM (inactive) | > 100 µM (inactive) | > 100 µM (inactive) | > 100 µM (inactive) | –
5 | COc1cc(C(=O)Oc2ccc3c(c2)OCO3)cc(OC)c1OC | – | > 100 µM (inactive) | > 100 µM (inactive) | > 100 µM (inactive) | > 100 µM (inactive) | > 100 µM (inactive) | > 100 µM (inactive) | > 100 µM (inactive) | > 100 µM | > 100 µM (inactive) | > 100 µM (inactive) | > 100 µM (inactive) | > 100 µM (inactive) | > 100 µM (inactive) | > 100 µM (inactive) | > 100 µM (inactive) | > 100 µM (inactive) | > 100 µM (inactive) | –
6 | O=C1CSC(c2ccccc2O)N1c1ccc(-c2ccc(-n3c(-c4ccccc4)nc4ccccc4c3=O)cc2)cc1 (stereo unspecified) | 29.5 µM (inactive) | 33.5 µM (inactive) | – | 34.8 µM (inactive) | 18.7 µM (inactive) | 50.6 µM (inactive) | 30.1 µM (inactive) | 37.6 µM (inactive) | 33.7 µM | 70 µM (inactive) | 43.1 µM (inactive) | 28.1 µM (inactive) | 50.1 µM (inactive) | 39.6 µM (inactive) | 37.9 µM (inactive) | 15.3 µM (inactive) | 35.5 µM (inactive) | 35.7 µM (inactive) | 24.9 µM (inactive)
7 | CC1=C(C(=O)NNC(=O)CC#N)CC(C(=O)NNC(=O)CC#N)=C(C)N1 | > 100 µM (inactive) | > 100 µM (inactive) | > 100 µM (inactive) | > 100 µM (inactive) | > 100 µM (inactive) | > 100 µM (inactive) | > 100 µM (inactive) | > 100 µM (inactive) | > 100 µM | > 100 µM (inactive) | > 100 µM (inactive) | > 100 µM (inactive) | > 100 µM (inactive) | > 100 µM (inactive) | > 100 µM (inactive) | > 100 µM (inactive) | > 100 µM (inactive) | > 100 µM (inactive) | –
8 | COc1ccc(/N=N/C(=N\c2ccc(F)cc2)c2ccc(N(CCC#N)CCC#N)cc2)cc1 | 32.6 µM (inactive) | 39.2 µM (inactive) | – | 30.9 µM (inactive) | 42.3 µM (inactive) | 31.9 µM (inactive) | > 100 µM (inactive) | > 100 µM (inactive) | 54 µM | 21.4 µM (inactive) | 52.1 µM (inactive) | 28.4 µM (inactive) | 19 µM (inactive) | 41.8 µM (inactive) | 39 µM (inactive) | 19.9 µM (inactive) | 29.9 µM (inactive) | 20.2 µM (inactive) | 27.6 µM (inactive)
9 | COC1C(OC(N)=O)C(O)C(Oc2ccc3c(O)c(NC(=O)c4ccc(O)c(CC=C(C)C)c4)c(=O)oc3c2C)OC1(C)C (stereo unspecified) | > 100 µM (inactive) | 71.8 µM (inactive) | > 100 µM (inactive) | > 100 µM (inactive) | > 100 µM (inactive) | > 100 µM (inactive) | > 100 µM (inactive) | – | 60.5 µM | > 100 µM (inactive) | > 100 µM (inactive) | > 100 µM (inactive) | > 100 µM (inactive) | > 100 µM (inactive) | 73.8 µM (inactive) | > 100 µM (inactive) | > 100 µM (inactive) | 62.2 µM (inactive) | > 100 µM (inactive)
10 | O=c1c(-c2ccccc2)nnc2n(Cc3ccccc3)c3ccccc3n12 | > 100 µM (inactive) | > 100 µM (inactive) | > 100 µM (inactive) | – | > 100 µM (inactive) | > 100 µM (inactive) | > 100 µM (inactive) | 22.5 µM (inactive) | > 100 µM | > 100 µM (inactive) | > 100 µM (inactive) | > 100 µM (inactive) | > 100 µM (inactive) | – | > 100 µM (inactive) | > 100 µM (inactive) | > 100 µM (inactive) | > 100 µM (inactive) | –
11 | NS(=O)(=O)c1ccc(C(=O)O)cc1 [CARZENIDE] | > 100 µM (inactive) | > 100 µM (inactive) | > 100 µM (inactive) | > 100 µM (inactive) | > 100 µM (inactive) | > 100 µM (inactive) | > 100 µM (inactive) | – | > 100 µM | > 100 µM (inactive) | > 100 µM (inactive) | > 100 µM (inactive) | – | > 100 µM (inactive) | > 100 µM (inactive) | > 100 µM (inactive) | > 100 µM (inactive) | – | > 100 µM (inactive)

Reference: ChEMBL document CHEMBL1201862, “PubChem BioAssay data set” (2004)
